According to ChEMBL document CHEMBL5360672, “Identification of Novel Dual-Target Estrogen Receptor α Degraders with Tubulin Inhibitory Activity for the Treatment of Endocrine-Resistant Breast Cancer” (J Med Chem, 2023):
Activity calls are given as the source filed them. The calls are words filed in the database; no cut-off is given here.

What was measured:
[1] = Antiproliferative activity against human Tamoxifen-resistant LCC2 cells assessed as inhibition of cell proliferation incubated for 72 hrs by CCK8 assay; format: functional, cell-based
[2] = target: T1, Estrogen receptor (Homo sapiens) (UniProt P03372); test: Induction of ERalpha degradation in human MCF7 cells at 5 uM incubated for 24 hrs by Western blot analysis; format: cell-based
T1 sequence (whole entry): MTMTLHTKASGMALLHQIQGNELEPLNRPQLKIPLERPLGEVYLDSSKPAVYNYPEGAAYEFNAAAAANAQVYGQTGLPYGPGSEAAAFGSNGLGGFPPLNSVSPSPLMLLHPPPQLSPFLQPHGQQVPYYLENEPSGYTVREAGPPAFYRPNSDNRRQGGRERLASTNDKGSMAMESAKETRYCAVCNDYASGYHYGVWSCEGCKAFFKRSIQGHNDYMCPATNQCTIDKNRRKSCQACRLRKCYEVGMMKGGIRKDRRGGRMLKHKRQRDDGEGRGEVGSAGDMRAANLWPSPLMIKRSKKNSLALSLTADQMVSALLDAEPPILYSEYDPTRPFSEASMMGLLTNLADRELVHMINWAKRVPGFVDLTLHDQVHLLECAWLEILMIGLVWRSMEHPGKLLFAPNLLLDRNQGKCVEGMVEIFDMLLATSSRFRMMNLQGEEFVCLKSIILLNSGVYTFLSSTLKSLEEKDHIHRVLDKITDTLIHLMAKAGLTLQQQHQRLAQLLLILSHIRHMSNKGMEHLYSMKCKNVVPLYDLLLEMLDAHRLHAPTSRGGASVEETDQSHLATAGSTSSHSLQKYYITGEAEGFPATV

T47D [3] = test: Antiproliferative activity against human T47D cells harboring ERalpha D538G mutant assessed as inhibition of cell proliferation incubated for 72 hrs by CCK8 assay; format: functional, cell-based
T47D [4] = test: Antiproliferative activity against ERalpha positive human T47D cells assessed as inhibition of cell proliferation incubated for 72 hrs by CCK8 assay; format: functional, cell-based
[5] = Selectivity index, ratio of IC50 for cytotoxicity against human MCF-10A cells to IC50 for antiproliferative activity against human MCF7 cells; format: toxicity, cell-based; conditions: MCF-10A cells and MCF7 cells, read-out: Ratio IC50
[6] = Cytotoxicity against human MCF-10A cells assessed as inhibition of cell proliferation incubated for 72 hrs by CCK8 assay; format: toxicity, cell-based
Tubulin (Homo sapiens) [7] = target: T2, Tubulin (Homo sapiens) (UniProt P68371+Q9H4B7+P0DPH7+P68366+Q13509+Q71U36+P04350+Q3ZCM7+P07437+P68363+Q9BQE3+Q6PEY2+Q13885+Q9BVA1+Q9BUF5); test: Inhibition of tubulin polymerization (unknown origin) at 30 uM incubated for 60 mins by microplate reader analysis; format: protein-complex assay
MCF7 [8] = test: Antiproliferative activity against ERalpha positive human MCF7 cells assessed as inhibition of cell proliferation incubated for 72 hrs by CCK8 assay; format: functional, cell-based; conditions: MCF7, 72 h
Homo sapiens = species: Homo sapiens; test: Selectivity ratio of relative binding affinity for human ERalpha to relative binding affinity to human ERbeta
[9] = target: Estrogen receptor beta (Homo sapiens) (UniProt Q92731); test: Binding affinity to human ERbeta assessed as relative binding affinity incubated under vibration for 1 min followed by 2 hrs incubation under dark condition by fluorescence polarization assay relative to estradiol; conditions: time 121.0 min
Sequence of Estrogen receptor beta (Homo sapiens) (Q92731 whole entry): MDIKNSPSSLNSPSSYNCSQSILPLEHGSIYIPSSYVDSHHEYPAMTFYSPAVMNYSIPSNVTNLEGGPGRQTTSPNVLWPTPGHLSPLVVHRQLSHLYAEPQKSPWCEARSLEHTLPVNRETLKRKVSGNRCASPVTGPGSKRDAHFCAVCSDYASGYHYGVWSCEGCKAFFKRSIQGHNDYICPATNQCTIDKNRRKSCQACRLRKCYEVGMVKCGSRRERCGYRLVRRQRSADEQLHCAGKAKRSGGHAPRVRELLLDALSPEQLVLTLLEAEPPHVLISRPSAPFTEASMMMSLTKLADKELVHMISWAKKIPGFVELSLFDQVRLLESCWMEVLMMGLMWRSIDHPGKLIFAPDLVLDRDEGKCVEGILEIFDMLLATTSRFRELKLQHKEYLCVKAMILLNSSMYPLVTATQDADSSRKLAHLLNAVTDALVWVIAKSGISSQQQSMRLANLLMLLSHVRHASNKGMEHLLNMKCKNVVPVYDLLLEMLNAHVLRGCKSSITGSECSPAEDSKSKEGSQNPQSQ

T47D [10] = test: Antiproliferative activity against human T47D cells harboring ERalpha Y537S mutant assessed as inhibition of cell proliferation incubated for 72 hrs by CCK8 assay; format: functional, cell-based
[11] = target: T1, Estrogen receptor (Homo sapiens); test: Binding affinity to human ERalpha assessed as relative binding affinity incubated under vibration for 1 min followed by 2 hrs incubation under dark condition by fluorescence polarization assay relative to estradiol; conditions: time 121.0 min
Tubulin (Homo sapiens) [12] = target: T2, Tubulin (Homo sapiens); test: Disruption of microtubule network in human LCC2 cells assessed as chaotic microtubule network at 4 uM incubated for 48 hrs by DAPI staining based confocal laser scanning microscopic analysis; format: cell-based
Estrogen receptor = target: T3, Estrogen receptor (Homo sapiens, UniProt P03372); test: Antagonist activity at ERalpha (unknown origin) expressed in HEK293T cells co-expressing ERbeta and ERE-luciferase reporter assessed as reduction in relative light unit incubated for 24 hrs by dual-luciferase reporter assay; format: cell-based
T3 sequence (P03372 whole entry): T1 sequence (whole entry)

LCC2 = test: Induction of cell cycle arrest in human LCC2 cells assessed as accumulation of cells at G2/M phase incubated for 48 hrs by flow cytometry analysis; format: functional, cell-based; conditions: dose 6-24 µM
Tubulin (Homo sapiens) [13] = target: T2, Tubulin (Homo sapiens); test: Disruption of microtubule network in human MCF7 cells assessed as chaotic microtubule network at 2 uM incubated for 48 hrs by DAPI staining based confocal laser scanning microscopic analysis; format: cell-based
Tubulin (Homo sapiens) [14] = target: T2, Tubulin (Homo sapiens); test: Disruption of microtubule network in human LCC2 cells assessed as ruptured microtubule network at 4 uM incubated for 48 hrs by DAPI staining based confocal laser scanning microscopic analysis; format: cell-based
Tubulin (Homo sapiens) [15] = target: T2, Tubulin (Homo sapiens); test: Disruption of microtubule network in human MCF7 cells assessed as ruptured microtubule network at 2 uM incubated for 48 hrs by DAPI staining based confocal laser scanning microscopic analysis; format: cell-based
MCF7 [16] = test: Induction of cell cycle arrest in human MCF7 cells assessed as increase in G2/M phase cells at 0 to 8 uM incubated for 48 hrs by flow cytometry analysis (reference value: 17.45%); format: functional; conditions: dose 0-8 µM
MDA-MB-231 = test: Antiproliferative activity against ERalpha negative human MDA-MB-231 cells assessed as inhibition of cell proliferation incubated for 72 hrs by CCK8 assay; format: functional, cell-based; conditions: MDA-MB-231, 72 h

SMILES | IC50 [1] [µM] | Activity [2] | IC50 (T47D [3]) [µM] | IC50 (T47D [4]) [µM] | selectivity ratio [5] | IC50 at 72 h [6] [µM] | tubulin polymerization inhibition (active/not active) (Tubulin (Homo sapiens) [7]) | IC50 (MCF7 [8]) [µM] | Selectivity ratio (Homo sapiens) | RBA [9] [%] | IC50 (T47D [10]) [µM] | RBA [11] [%] | Activity (Tubulin (Homo sapiens) [12]) | IC50 (Estrogen receptor) [µM] | Activity (LCC2) | Activity (Tubulin (Homo sapiens) [13]) | Activity (Tubulin (Homo sapiens) [14]) | Activity (Tubulin (Homo sapiens) [15]) | Activity (MCF7 [16]) [%] | IC50 (MDA-MB-231) [µM]
O=S(=O)(Oc1ccccc1)C1CC2OC1C(c1ccc(O)cc1)=C2c1ccc(O)cc1 (stereo unspecified) | 25 | inactive | > 31 | > 31 | > 4.11 | > 60 | inactive | – | – | – | – | – | – | – | – | – | – | – | – | –
COc1ccc(N(CC(F)(F)F)S(=O)(=O)C2CC3OC2C(c2ccc(O)cc2)=C3c2ccc(O)cc2)cc1 (stereo unspecified) | 5.16 | – | 7.25 | 6.92 | 88.6 | 20.4 | inactive | 0.23 | 12.7 | 0.06 | 12.7 | 0.76 | – | – | – | – | – | – | – | –
N#C[Se]CCCCCC(=O)Nc1ccc(C2=C(c3ccc(O)cc3)C3CC(S(=O)(=O)Oc4ccccc4F)C2O3)cc1 (stereo unspecified) | 6.13 | – | 1.47 | 0.85 | 63 | 17.6 | Active | 0.28 | 44.5 | 0.39 | 1.56 | 17.4 | Active | 1.01 | Dose-Dependent Effect | Active | Active | Active | 27.55 | 3.4
CC/C(=C(\c1ccc(O)cc1)c1ccc(OCCN(C)C)cc1)c1ccccc1 [AFIMOXIFENE] | 20.9 | – | 9.13 | – | – | – | – | – | – | – | 8.9 | – | – | – | – | – | – | – | – | 17.2
